# Measured values published in ChEMBL document CHEMBL5375989, “Pioneering 4,11-Dioxo-4,11-dihydro-1H-anthra[2,3-d]imidazol-3-ium Compounds as Promising Survivin Inhibitors by Targeting ILF3/NF110 for Cancer Therapy” (J Med Chem, 2023).
# pIC50: −log10 of the molar value. Activity calls are given as the source filed them. The calls are words filed in the database; no cut-off is given here.
# Key:
# A549 [1] = experiment: Inhibition of colony formation in human A549 cells assessed as suppression of colony formation at 1 nM replaced with fresh medium for every 72 hrs and measured for 15 days by crystal violet staining based assay; type: functional, cell-based; conditions: time 15.0 day
# A549 [2] = experiment: Induction of autophagy in human A549 cells assessed as increase in LC3II amount by Western blot analysis; type: functional, cell-based; conditions: dose 0.04-0.1 µM
# A549 [3] = experiment: Induction of oxidative stress in human A549 cells assessed as upregulation of ROS level by DCFH-DA staining based analysis; type: functional, cell-based; conditions: dose 0.04-0.1 µM
# A549 [4] = experiment: Induction of DNA damage in human A549 cells assessed as gammaH2AX accumulation at 0.04 uM by Western blot analysis; type: functional, cell-based
# A549 [5] = experiment: Induction of DNA damage in human A549 cells measured after 36 hrs by comet assay; type: functional, cell-based; conditions: dose 0.04-0.1 µM
# A549 [6] = experiment: Induction of DNA damage in human A549 cells assessed as increase in DNA percentage in tail at low concentration measured after 36 hrs by comet assay; type: functional, cell-based
# A549 [7] = experiment: Induction of apoptosis in human A549 cells assessed as increase in caspase-3 cleavage at low concentration measured after 48 hrs by Western blot analysis; type: functional, cell-based
# A549 [8] = experiment: Induction of apoptosis in human A549 cells assessed as inhibition of Bcl-2 level measured after 48 hrs by Western blot analysis; type: functional, cell-based; conditions: dose 0.01-0.1 µM
# A549 [9] = experiment: Induction of apoptosis in human A549 cells assessed as upregulation of bax level measured after 48 hrs by Western blot analysis; type: functional, cell-based; conditions: dose 0.01-0.1 µM
# A549 [10] = experiment: Induction of autophagy in human A549 cells assessed as formation of GFP-LC3 punctate by confocal fluorescence microscopy analysis; type: functional, cell-based; conditions: dose 0.01-0.1 µM
# A549 [11] = experiment: Inhibition of survivin mRNA expression in human A549 cells by Q-PCR analysis; type: functional, cell-based; conditions: dose 0.01-0.1 µM
# A549 [12] = experiment: Inhibition of survivin protein expression in human A549 cells by Western blot analysis; type: functional, cell-based; conditions: dose 0.004 µM
# A549 [13] = experiment: Induction of apoptosis in survivin silenced human A549 cells assessed as decrease in apoptotic rate at 0.04 uM measured after 48 hrs by AnnexinV-FITC/PI staining based flow cytometry; type: functional, cell-based
# [14] = target: Baculoviral IAP repeat-containing protein 5 (Homo sapiens) (UniProt O15392); experiment: Inhibition of Survivin (unknown origin) expressed in HEK293T cells in presence of ILF3/NF110 by Dual luciferase reporter assay; type: cell-based; conditions: dose <= 2000.0 nM
# A549 [15] = experiment: Antitumor activity against human A549 cells xenografted in BALB/c nude mouse assessed as inhibition of tumor growth at 2 mg/kg, sc administered every 2 days for 14 days; type: functional, organism-based; conditions: time 14.0 day
# A549 [16] = experiment: Antitumor activity against human A549 cells xenografted in BALB/c nude mouse assessed as appearance of tumor necrosis at 4 mg/kg measured after 14 days by H and E staining based analysis; type: functional, organism-based; conditions: time 14.0 day
# A549 [17] = experiment: Antitumor activity against human A549 cells xenografted in BALB/c nude mouse assessed as increase in apoptosis at 2 mg/kg measured after 14 days by tunel staining based analysis; type: functional, organism-based; conditions: time 14.0 day
# A549 [18] = experiment: Antitumor activity against human A549 cells xenografted in BALB/c nude mouse assessed as increase in apoptosis at 2 to 4 mg/kg measured after 14 days by tunel staining based analysis; type: functional, organism-based; conditions: dose 2-4 mg/kg, time 14.0 day
# A549 [19] = experiment: Antitumor activity against human A549 cells xenografted in BALB/c nude mouse assessed as appearance of various size of tumor necrosis at 2 mg/kg measured after 14 days by H and E staining based analysis; type: functional, organism-based; conditions: time 14.0 day
# A549 [20] = experiment: Antitumor activity against human A549 cells xenografted in BALB/c nude mouse assessed as decrease in tumor cell proliferation at 2 to 4 mg/kg measured after 14 days by Ki67 staining based analysis; type: functional, organism-based; conditions: dose 2-4 mg/kg, time 14.0 day
# A549 [21] = experiment: Antitumor activity against human A549 cells xenografted in BALB/c nude mouse assessed as decrease in tumor cell proliferation at 2 to 4 mg/kg measured after 14 days by PCNA staining based analysis; type: functional, organism-based; conditions: dose 2-4 mg/kg, time 14.0 day
# ASPC1 = experiment: Antiproliferative activity against human ASPC1 cells assessed as inhibition of cell growth measured after 48 hrs by MTT assay; type: functional, cell-based
# BXPC-3 = experiment: Antiproliferative activity against human BXPC-3 cells assessed as inhibition of cell growth measured after 48 hrs by MTT assay; type: functional, cell-based; conditions: Homo sapiens, BXPC-3, 48 h
# PANC-1 = experiment: Antiproliferative activity against human PANC-1 cells assessed as inhibition of cell growth measured after 48 hrs by MTT assay; type: functional, cell-based; conditions: Homo sapiens, PANC-1, 48 h
# MCF7 = experiment: Antiproliferative activity against human MCF7 cells assessed as inhibition of cell growth measured after 48 hrs by MTT assay; type: functional, cell-based; conditions: MCF7, 48 h
# NCI-H460 = experiment: Antiproliferative activity against human NCI-H460 cells assessed as inhibition of cell growth measured after 48 hrs by MTT assay; type: functional, cell-based; conditions: Homo sapiens, NCI-H460, 48 h
# HepG2 = experiment: Antiproliferative activity against human HepG2 cells assessed as inhibition of cell growth measured after 48 hrs by MTT assay; type: functional, cell-based; conditions: Homo sapiens, HepG2, 48 h
# NCI-H1299 = experiment: Antiproliferative activity against human NCI-H1299 cells assessed as inhibition of cell growth measured after 48 hrs by MTT assay; type: functional, cell-based; conditions: Homo sapiens, NCI-H1299, 48 h
# 143B = experiment: Antiproliferative activity against human 143B cells assessed as inhibition of cell growth measured after 48 hrs by MTT assay; type: functional, cell-based; conditions: Homo sapiens, 143B, 48 h
# HeLa = experiment: Antiproliferative activity against human HeLa cells assessed as inhibition of cell growth measured after 48 hrs by MTT assay; type: functional, cell-based; conditions: Homo sapiens, HeLa, 48 h
# A549 [22] = experiment: Antitumor activity against human A549 cells xenografted in BALB/c nude mouse assessed as decrease in tumor cell proliferation at 2 mg/kg measured after 14 days by Ki67 staining based analysis; type: functional, organism-based; conditions: time 14.0 day
# A549 [23] = experiment: Antitumor activity against human A549 cells xenografted in BALB/c nude mouse assessed as decrease in tumor cell proliferation at 2 mg/kg measured after 14 days by PCNA staining based analysis; type: functional, organism-based; conditions: time 14.0 day
# A549 [24] = experiment: Induction of apoptosis in human A549 cells assessed as viable cells at 0.04 uM measured after 48 hrs by annexin V and PI staining based flow cytometry analysis (reference value: 93.3%); type: functional
# A549 [25] = experiment: Induction of apoptosis in human A549 cells assessed as viable cells at 0.1 uM measured after 48 hrs by annexin V and PI staining based flow cytometry analysis (reference value: 93.3%); type: functional
# A549 [26] = experiment: Induction of apoptosis in human A549 cells assessed as viable cells at 0.25 uM measured after 48 hrs by annexin V and PI staining based flow cytometry analysis (reference value: 93.3%); type: functional
# A549 [27] = experiment: Induction of apoptosis in human A549 cells assessed as early apoptotic cells at 0.04 uM measured after 48 hrs by annexin V and PI staining based flow cytometry analysis (reference value: 0.71%); type: functional
# A549 [28] = experiment: Induction of apoptosis in human A549 cells assessed as early apoptotic cells at 0.1 uM measured after 48 hrs by annexin V and PI staining based flow cytometry analysis (reference value: 0.71%); type: functional
# A549 [29] = experiment: Induction of apoptosis in human A549 cells assessed as early apoptotic cells at 0.25 uM measured after 48 hrs by annexin V and PI staining based flow cytometry analysis (reference value: 0.71%); type: functional
# A549 [30] = experiment: Induction of apoptosis in human A549 cells assessed as late apoptotic cells at 0.04 uM measured after 48 hrs by annexin V and PI staining based flow cytometry analysis (reference value: 4.70%); type: functional
# A549 [31] = experiment: Induction of apoptosis in human A549 cells assessed as late apoptotic cells at 0.1 uM measured after 48 hrs by annexin V and PI staining based flow cytometry analysis (reference value: 4.70%); type: functional
# A549 [32] = experiment: Induction of apoptosis in human A549 cells assessed as late apoptotic cells at 0.25 uM measured after 48 hrs by annexin V and PI staining based flow cytometry analysis (reference value: 4.70%); type: functional
# A549 [33] = experiment: Induction of apoptosis in human A549 cells assessed as necrotic cells at 0.04 uM measured after 48 hrs by annexin V and PI staining based flow cytometry analysis (reference value: 1.47%); type: functional
# A549 [34] = experiment: Induction of apoptosis in human A549 cells assessed as necrotic cells at 0.1 uM measured after 48 hrs by annexin V and PI staining based flow cytometry analysis (reference value: 1.47%); type: functional
# A549 [35] = experiment: Induction of apoptosis in human A549 cells assessed as necrotic cells at 0.25 uM measured after 48 hrs by annexin V and PI staining based flow cytometry analysis (reference value: 1.47%); type: functional
# A549 [36] = experiment: cells; conditions: Homo sapiens, A549, 48 h
# Description: Antiproliferative activity against human A549 cells assessed as inhibition of cell growth measured after 48 hrs by MTT assay
# TE-1 [37] = experiment: cells; conditions: Homo sapiens, TE-1, 48 h
# Description: (§1) Antiproliferative activity against human TE-1 cells assessed as inhibition of cell growth measured after 48 hrs by MTT assay
# 5637 [38] = experiment: cells; conditions: Homo sapiens, 5637, 48 h
# Description: (§2) Antiproliferative activity against human 5637 cells assessed as inhibition of cell growth measured after 48 hrs by MTT assay
# [39] = Antiproliferative activity against mouse L929 cells assessed as inhibition of cell growth measured after 48 hrs by MTT assay; type: toxicity, cell-based; conditions: mouse, L929 cells
# [40] = Antiproliferative activity against mouse NIH3T3 cells assessed as inhibition of cell growth measured after 48 hrs by MTT assay; type: toxicity, cell-based; conditions: mouse, NIH3T3 cells
# [41] = Antiproliferative activity against human HUVEC cells assessed as inhibition of cell growth measured after 48 hrs by MTT assay; type: toxicity, cell-based; conditions: human, HUVEC cells
# [42] = Antiproliferative activity against human MRC5 cells assessed as inhibition of cell growth measured after 48 hrs by MTT assay; type: toxicity, cell-based; conditions: human, MRC5 cells
# TE-1 [43] = test system: TE-1
# Description: as §1
# 5637 [44] = test system: 5637
# Description: as §2
# [45] = Homo sapiens, A549, 48 h, read-out: Activity
# Baculoviral IAP repeat-containing protein 5 (Homo sapiens), sequence (O15392 whole entry): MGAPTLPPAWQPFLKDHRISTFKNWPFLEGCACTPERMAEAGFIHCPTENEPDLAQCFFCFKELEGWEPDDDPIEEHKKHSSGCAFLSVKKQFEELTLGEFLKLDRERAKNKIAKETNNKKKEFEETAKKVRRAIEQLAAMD
SMILES,inhibition (A549 [1]),Activity (A549 [15]),Activity (A549 [17]),Activity (A549 [19]),pIC50 (BXPC-3),pIC50 (PANC-1),pIC50 (MCF7),pIC50 (NCI-H460),pIC50 (HepG2),pIC50 (NCI-H1299),pIC50 (143B),pIC50 (HeLa),Activity (A549 [27]),Activity (A549 [28]),Activity (A549 [29]),Activity (A549 [30]),Activity (A549 [31]),Activity (A549 [32]),Activity (A549 [33]),Activity (A549 [34]),also measured
Cn1c[n+](C)c2c1C(=O)c1cc3ccccc3cc1C2=O,Active,Active,Active,Active,,,,,,,,,,,,,,,,,Activity (A549 [2]): Dose-Dependent Effect; Activity (A549 [3]): Active; Activity (A549 [4]): Active; Activity (A549 [5]): Dose-Dependent Effect; Activity (A549 [6]): Active; Activity (A549 [7]): Active; Activity (A549 [8]): Dose-Dependent Effect; Activity (A549 [9]): Dose-Dependent Effect; Activity (A549 [10]): Dose-Dependent Effect; inhibition (A549 [11]): Active; inhibition (A549 [12]): Active; Activity (A549 [13]): Active; inhibition [14]: Dose-Dependent Effect; Activity (A549 [16]): Active; Activity (A549 [18]): Active; Activity (A549 [20]): Active; Activity (A549 [21]): Active
COCC[n+]1c2c(n(Cc3cnccn3)c1C)C(=O)c1ccccc1C2=O.[Br-] [SEPANTRONIUM BROMIDE],Active,inactive,Active,Active,7.05,8.00,8.00,7.00,5.43,6.92,6.49,5.74,1.65%,1.54%,0.57%,51.1%,76.4%,86.9%,24.2%,11.7%,"pIC50 (ASPC1; Homo sapiens, ASPC1, 48 h): 6.29; Activity (A549 [22]): Active; Activity (A549 [23]): Active; viability at 0.04 µM (A549 [24]; [45]): 22.2%; viability at 0.1 µM (A549 [25]; [45]): 11.3%; viability at 0.25 µM (A549 [26]; [45]): 4.72%; Activity (A549 [35]): 7.79%; pIC50 (A549 [36]): 8.00; pIC50 (TE-1 [37]): 8.10; pIC50 5637 [38]: 6.96"
Cn1c[n+](C)c2c1C(=O)c1cc3ccccc3cc1C2=O.[Br-],,,,,6.96,7.05,7.22,6.80,6.44,6.27,6.39,5.73,1.6%,0.55%,0.22%,58.5%,79.7%,89.2%,13.9%,11.5%,IC50 at 48 h [39]: 13600 nM; pIC50 (ASPC1; aspc1): 6.96; IC50 at 48 h [40]: 14200 nM; IC50 at 48 h [41]: 10500 nM; IC50 at 48 h [42]: 3980 nM; Activity (A549 [24]): 25.3%; Activity (A549 [25]): 8.24%; Activity (A549 [26]): 2.43%; Activity (A549 [35]): 7.92%; pIC50 (TE-1 [43]): 7.52; pIC50 5637 [44]: 6.96; pIC50 (A549 [36]): 8.00
